Melting point data for 89 compounds are collected here from a melting point compilation (Tetko et al.; mined from patent text by program, amines drawn as free bases though some values may be those of a salt).

Usually melting point stands for the temperature of the solid-liquid transition.

`O=C(O)c1cccc(-c2cccc3oc(Cc4cccc(C(F)(F)F)c4)cc23)c1` yielded a melting point of 138 to 139 °C. `O=C(O)CCCCCNC(=O)c1cccc2c(=O)c3ccccc3[nH]c12` yielded a melting point of 218 °C. Under `Cc1ccc(N2Cc3ccccc3P2(=O)C(C)C)cc1` (centres undefined) stands 135 to 137 °C.

In turn, `COc1cc(OC)c2c(=O)[nH]c(-c3ccc(OCCN4CCCC4)c(-c4ccc(S(C)=O)cc4)n3)nc2c1` (centres undefined) yielded a melting point of 103 to 105 °C.

In turn, `CC(C)C(=O)c1cc2ccncc2[nH]1` yielded a melting point of 224 to 228 °C. Under `Cc1cc(OCCNC(=O)C2Cc3ccccc3N2S(=O)(=O)c2ccc(-c3cccc(C(F)(F)F)c3)cc2)ccc1CC(=O)O` (centres undefined) stands 87 to 90 °C; under `CCCCN(CCCC)CCCCOc1ccc(S(=O)(=O)c2c(C(C)C)cn3ccccc23)cc1`, 96 °C; under `COc1ccc(/C=N/Nc2ccccc2)cc1OC1CCCC1`, 138 to 140 °C. Under `COC(=O)C(=CC1C(C(=O)O)C1(C)C)OC` (centres undefined) stands 78 °C; under `C#CC(C)(C)NC(=O)c1cnc(N2CCC(N3C(=O)OCc4ccccc43)CC2)c(Cl)c1`, 135 to 138 °C. As for `CCCCCc1nc(-c2ncn3c2COC(=O)c2c(Cl)cccc2-3)no1`, the melting point fell in the range of 110 to 112 °C. `CC1CCC(=NN(C)c2ccccc2)c2ncc(C(=O)O)c(=O)n21` (centres undefined) registered a melting point of 196 to 198 °C. The compound `COc1ccc2c(c1)COc1ccc(OCc3ccc4ccc(Cl)cc4n3)cc1C2SCCC(=O)O` (centres undefined) showed a melting point of 177 to 179 °C. The compound `CSc1c(O)ccc2[nH]ncc12` displayed a melting point of 126 to 128 °C. For `Cc1c(-c2cncnc2)ssc1=S`, the melting point came to 184 °C. As for `O=C1CCn2nc(-c3ccc(F)cc3)c(-c3ccncc3)c2N1`, the melting point was greater than 250 °C.

`CCCC1CCC(C2Cc3c4c(c(F)c(F)c3O2)OCCC4)CC1` (centres undefined) gave a melting point of 96 °C. `Nc1nn(-c2ccccc2)cc1C=O`: the melting point was in the range of 129 to 130 °C. Compound `CC1(C)CCC(C)(C)c2cc(COc3c(C(=O)O)cccc3-c3ccccc3)ccc21` yielded a melting point of 144 to 146 °C. `COc1cccc(COc2cncc(Cl)n2)c1` showed a melting point of 111 to 113 °C. Regarding `Cc1oc(-c2ccccc2)nc1COc1ccc2cc(CC3OC(=O)NC3=O)oc2c1` (centres undefined), the melting point fell in the range of 172 to 173 °C. On to `O=C(NCCc1ccccc1Cl)c1ccccc1`, for which the melting point fell in the range of 70.1 to 71 °C.

Consider `CN(C)C(=O)Cc1ccccc1Nc1ccnc2cc(C(F)(F)F)ccc12`, for which the melting point fell in the range of 172 to 173 °C. In turn, `CCNC(=O)NCCC1CCCc2ccc(OC)cc21` (centres undefined) returned a melting point of 70 to 71 °C. For the compound `CC(C)Cc1nn(C)c(=O)c2cc(C(O)c3cccc4ccccc34)sc12` (centres undefined), the melting point was in the range of 165 to 167 °C. Under `CC(=NS(=O)(=O)C=Cc1c(Cl)cccc1Cl)NC1CC1` stands 121 to 124 °C. For `CCOC(=O)C(=O)c1ccc(OC)s1`, the melting point lay within 136 to 137 °C.

Turning to `CCCCc1cc(Cc2ccc(C(=O)O)cc2)c2ccccc2n1`, the melting point was 158 °C.

Compound `CC(Cc1cccc([N+](=O)[O-])c1)(NC(=O)CN1C(=O)c2ccccc2C1=O)c1ccccc1` (centres undefined) yielded a melting point of 172 to 173 °C. On to `Cn1c(=O)c(-c2c(Cl)cccc2Cl)cc2cnc(NCc3ccccc3)nc21`, for which the melting point is 217 to 219 °C. With `CCC1(Cl)C(=O)c2c(cc(OCC(=O)O)c(Cl)c2Cl)C1Cl` (centres undefined), the melting point was 186 °C. Turning to `Nc1ncc2c(n1)-c1ccc(Cl)cc1C(c1ccccc1F)=NC2`, the melting point is 245 to 248 °C. In the case of `CC1(C)CC2(CC(C)(C)N1)NC(C)(CO)CO2` (centres undefined), the melting point lay in the range of 90 to 92 °C. Compound `CCCc1ccccc1Sc1c(O)cc(-c2ccccc2)oc1=O` yielded a melting point of 158 to 160 °C. Take `COc1ccc2cccc(C(F)CNC(C)=O)c2c1` (centres undefined): the melting point lay within 128 to 130 °C.

The compound `Cc1nc2c(N)nc3c(c2n1CC(C)(C)O)CCCC3` displayed a melting point of 290 to 292 °C. Under `CCN(CC)CC1(C)Cc2c(C)c(N3CCN(c4ccc(OC)cc4)CC3)c(C)c(C)c2O1` (centres undefined) stands 103 to 106 °C; under `CCOc1ccc(C23CNCC2C3)cc1` (centres undefined), 48 to 49 °C; under `O=C(c1ccc(CCl)cc1)N1CCCCC1`, 106 to 108 °C. For the compound `O=Cc1ccc(-c2cc(-c3c(-c4ccccn4)nc4ccccn34)ccn2)cc1`, the melting point is 216 to 218 °C. Regarding `COC(=O)CN1C(=S)CN=C(c2ccccc2Cl)c2cc(Cl)ccc21`, the melting point was in the range of 191 to 192 °C. Under `CSCCO[C@@H]1c2ccn3c(C)c(C)nc3c2N[C@H](c2ccccc2)[C@H]1O` stands 118 to 119 °C; under `CCCc1ccc(-c2ccc(-c3ccc(F)s3)c(F)c2)cc1`, 64 °C; under `CN(C)C=C(C(=O)c1ccc(Cl)cc1Cl)n1cncn1`, 173 °C. As to `CCOC(=O)c1nc2ccccn2c1-c1ccccc1`, the melting point was 106 °C. `COC(=O)c1cc(S)cc(S)c1` gave a melting point of 61 to 62 °C.

The compound `O=C1CCCC(c2ccccc2)(c2ccccc2)N1` had a melting point of 193 to 196 °C.

As to `Nc1ccccc1C(=O)c1ccc(Cl)cc1`, the melting point lay within 100 to 102 °C.

In turn, `COc1ccc(S(=O)(=O)NCC(O)(Cn2cncn2)c2ccc(Cl)cc2Cl)cc1` (centres undefined) returned a melting point of 56 to 66 °C. With `CCOC(=O)C(CC)(Cc1ccc(OCCN2CCCCC2)cc1)S(=O)(=O)c1ccc(OC)cc1` (centres undefined), the melting point was found to be 75 °C. In the case of `CCCCCCCCNC(=O)NCCCCC`, the melting point was 65 to 65.5 °C.

Regarding `CC1=NC(NC(=O)Nc2cccc(C)c2)C(=O)N(CC(=O)N(CC(C)C)CC(C)C)c2c(C)cccc21` (centres undefined), the melting point was 227 to 228 °C. `CCCn1c(=O)c(-c2ccccc2)c2n(c1=O)CC=CS2` registered a melting point of 142 to 144 °C.

Take `CON=C(c1noc(C)n1)c1cc(Cl)ccc1OCc1ccc(Cl)cc1`: the melting point is 127 to 128 °C.

Compound `Cc1cccc2c(-c3ccc(F)cc3)onc12` registered a melting point of 134 to 136 °C.

The compound `O=Cc1c(Br)ncn1Cc1cc2c(cc1Cl)OCO2` gave a melting point of 136 °C.

The compound `COCc1cc(-c2ccccc2N)[nH]n1` yielded a melting point of 74 to 78 °C. On to `CC(C)(C)S(=O)(=O)CC(Cc1ccccc1)C(=O)O` (centres undefined), for which the melting point is 147 to 148 °C. `CCCOc1ccc(C(C)=O)cc1C(=O)OC` had a melting point of 49 °C. In turn, `O=C(Cc1ccc(Cl)cc1Cl)c1cccnc1` displayed a melting point of 78 to 79 °C. Under `Cc1nc2c(cnn2-c2c(Cl)cc(C(F)(F)F)cc2Cl)c(=O)[nH]1` stands 300 °C; under `Cc1sc(C=O)cc1NC(=O)OCc1ccccc1`, 120 °C; under `O=C(O)CCCC/C=C/c1ccccc1CO`, 92 to 94.5 °C. In the case of `CC(CCCO[Si](C)(C)C(C)(C)C)C1CCC2C3=CC=C4C(C)(C)C(O[Si](C)(C)C(C)(C)C)CCC4(C)C3CCC21C` (centres undefined), the melting point lay in the range of 98 to 106 °C. `COC(=O)C(OC(C(=O)OC)C(=O)OC)C(=O)OC` returned a melting point of 60 to 61 °C. Under `COc1ccc(C2SCC(C(=O)O)N2C(=O)OC(C)(C)C)cc1` (centres undefined) stands 160 to 162 °C; under `Cc1cc2cc(CN3CCCC3)cnc2cc1NC(=O)c1ccc(-c2ccccc2F)cc1`, 148 to 149 °C; under `Cc1nc(N2CCC(Cc3ccc(OC(F)F)cc3)C2=O)sc1C(=O)NCc1ccc(F)cc1` (centres undefined), 143 to 145 °C.

In the case of `CC(=O)NC(NC(=O)Nc1ccccc1)C(=O)NCc1ccccc1` (centres undefined), the melting point came out at 242 °C. As for `CCCCCCCCCCCCCCCCCCOc1cc(OCCCOc2cccc(Br)c2)cc(N(CC(=O)OC)CC(=O)OC)c1`, the melting point was in the range of 48 to 50 °C. Under `CCCCn1nc(CCC)nc1Cc1ccc(-c2ccccc2-c2nnn[nH]2)nc1` stands 164 to 166 °C; under `Cc1cc(C)n(-c2nc(-c3ccc(Cl)cc3)c(CCC(=O)N3CCN(CC4CCN(C)CC4)CC3)o2)n1`, 126 to 127 °C. `O=C(CCCl)Nc1ccc(C(=O)c2ccccc2)cc1` yielded a melting point of 135 to 136 °C. On to `COC(=O)C1=C(C)NC(C)=C(C(=O)O)C1c1ccccc1` (single isomer, unassigned; (-)), for which the melting point lay within 158 to 159 °C. For `O=c1ccc(C(F)(F)F)cn1Cc1ccc(NCCCN2CCCCC2)cc1`, the melting point is 168 to 170 °C.

Consider `CC(C)n1cnc2c(Nc3ccc(F)cc3)nc(Cl)nc21`, for which the melting point turned out to be 154 °C. In the case of `CCON=C(C(=O)OCC)c1csc(N)n1`, the melting point is 129 °C. Regarding `Cc1cn([C@H]2CC(N=[N+]=[N-])[C@@H](COC(=O)C(C)(C)CC(=O)N[C@@H](Cc3ccccc3)[C@H](O)C(=O)N3CSC(C)(C)[C@H]3C(=O)NC(C)(C)C)O2)c(=O)[nH]c1=O` (some centres undefined), the melting point is 95 to 97 °C. Under `CCC(Oc1ncn(-c2ccc(Cl)c(Cl)c2)n1)C(=O)O` (centres undefined) stands 232 to 234 °C; under `O=C(CC(=S)S)c1ccc(Oc2ccccc2)cc1`, 78 °C. On to `O=[N+]([O-])c1cc(F)c(Cl)cc1Cl`, for which the melting point was 39 to 42 °C. `COc1ccc(C2=C(C#N)C(c3ccccc3Cl)c3c[nH]nc3N2)cc1` (centres undefined) came in with a melting point of 124 °C. `CCOC(=O)c1cn(OC)c2nc3cc(N4CC(NC)C4)c(F)cc3cc2c1=O` came in with a melting point of 234 °C. The compound `CCOC(=O)c1c(OCc2ccc(-c3ccccc3-c3nnn(C(c4ccccc4)(c4ccccc4)c4ccccc4)n3)cc2)cc(C)nc1C` came in with a melting point of 136 to 138 °C.

`CN1C(c2nnc(C3CCCCC3)o2)=C(OC(=O)c2ccccc2)c2ccccc2S1(=O)=O`: the melting point is 157 °C. Turning to `CCCCCCCCCCCCCCCCNC(=O)c1cc(OCCS(C)(=O)=O)c2ccccc2c1O`, the melting point was 107 to 109 °C.

In turn, `COc1cc(OCc2ccccn2)ccc1/C=C/c1cc(/C=C/c2ccc3cc[nH]c3c2)n[nH]1` displayed a melting point of 237 to 239 °C. Compound `CCCNC(=O)C1(C/C=C\CSc2nc3ccc(OCC)cc3s2)c2ccccc2-c2ccccc21` displayed a melting point of 135 to 137 °C. The compound `COc1ccc(-c2cncc(OC3SCC(OC(C)=O)C(OC(C)=O)C3OC(C)=O)c2)cc1Cl` (centres undefined) yielded a melting point of 155 °C.
